Assay results published in patent US20240208968A1, “ALPHA V BETA 6 AND ALPHA V BETA 1 INTEGRIN INHIBITORS AND USES THEREOF” (DiCE Molecules SV, Inc., priority 2021, published 2024).

Experiments:
αvβ1 = αvβ1 (Homo sapiens, UniProt P05556+P06756); assay: Solid Phase Integrin αvβ1 Assay; assay type: binding
Summary of the method: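 Compound competes for αvβ1 binding to immobilized TGFb1-LAP (1 µg/mL coat) in Mn2+ (1 mM MnCl2), 2% BSA binding buffer over 90 min at room temperature, integrin added at 0.2 µg/mL. Read-out: streptavidin-HRP/TMB; IC50 from Levenberg-Marquardt four-parameter fit.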

αvβ6 = αvβ6 (Homo sapiens, UniProt P06756+P18564); assay: Solid Phase Integrin αvβ6 Assay; assay type: binding
Chain of αvβ6 (P06756 31-992 limits assumed): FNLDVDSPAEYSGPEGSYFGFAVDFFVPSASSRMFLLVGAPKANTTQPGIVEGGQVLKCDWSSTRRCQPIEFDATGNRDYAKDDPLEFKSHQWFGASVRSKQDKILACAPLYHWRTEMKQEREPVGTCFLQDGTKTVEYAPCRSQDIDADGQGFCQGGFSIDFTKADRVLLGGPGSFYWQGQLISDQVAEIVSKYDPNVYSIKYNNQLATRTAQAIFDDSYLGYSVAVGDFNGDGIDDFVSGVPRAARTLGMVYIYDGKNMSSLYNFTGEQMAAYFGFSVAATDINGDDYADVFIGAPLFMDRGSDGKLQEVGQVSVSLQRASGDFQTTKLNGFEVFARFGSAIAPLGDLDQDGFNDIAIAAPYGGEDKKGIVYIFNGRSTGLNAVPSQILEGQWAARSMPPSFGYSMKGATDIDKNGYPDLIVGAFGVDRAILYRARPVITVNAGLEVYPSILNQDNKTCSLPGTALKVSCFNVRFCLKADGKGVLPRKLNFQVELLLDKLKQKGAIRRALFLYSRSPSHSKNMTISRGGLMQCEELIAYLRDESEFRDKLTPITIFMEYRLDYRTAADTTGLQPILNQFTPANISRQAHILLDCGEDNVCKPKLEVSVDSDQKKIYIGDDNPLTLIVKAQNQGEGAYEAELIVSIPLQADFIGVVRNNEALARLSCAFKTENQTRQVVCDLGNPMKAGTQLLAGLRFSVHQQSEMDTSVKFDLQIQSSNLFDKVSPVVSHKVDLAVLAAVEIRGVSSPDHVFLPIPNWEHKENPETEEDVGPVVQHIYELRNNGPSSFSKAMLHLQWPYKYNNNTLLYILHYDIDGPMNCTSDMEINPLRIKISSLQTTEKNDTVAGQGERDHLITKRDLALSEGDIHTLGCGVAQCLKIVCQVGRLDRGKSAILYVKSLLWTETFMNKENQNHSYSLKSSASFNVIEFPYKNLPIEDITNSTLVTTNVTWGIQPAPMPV
Chain of αvβ6 (P18564 22-707 limits assumed): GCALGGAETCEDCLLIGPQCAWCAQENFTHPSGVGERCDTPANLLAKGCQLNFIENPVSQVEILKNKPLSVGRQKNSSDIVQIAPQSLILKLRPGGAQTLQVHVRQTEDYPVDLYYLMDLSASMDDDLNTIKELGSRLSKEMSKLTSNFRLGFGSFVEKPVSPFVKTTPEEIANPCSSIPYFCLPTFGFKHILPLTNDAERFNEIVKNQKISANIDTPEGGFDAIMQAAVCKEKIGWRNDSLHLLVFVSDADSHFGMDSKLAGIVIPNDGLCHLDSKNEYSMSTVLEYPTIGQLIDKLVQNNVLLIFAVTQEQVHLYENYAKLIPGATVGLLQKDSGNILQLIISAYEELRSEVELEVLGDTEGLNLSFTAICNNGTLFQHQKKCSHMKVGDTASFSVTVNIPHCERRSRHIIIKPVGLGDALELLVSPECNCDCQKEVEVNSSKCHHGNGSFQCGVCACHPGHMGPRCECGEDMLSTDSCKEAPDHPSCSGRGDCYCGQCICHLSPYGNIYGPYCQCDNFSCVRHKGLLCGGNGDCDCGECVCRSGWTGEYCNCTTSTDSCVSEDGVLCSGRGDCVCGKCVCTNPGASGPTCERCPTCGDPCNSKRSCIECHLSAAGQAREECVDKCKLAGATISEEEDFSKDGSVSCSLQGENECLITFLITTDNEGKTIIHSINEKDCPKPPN
Summary of the method: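 Inhibition of αvβ6 binding to immobilized recombinant TGFb1-LAP (1 μg/mL coating), 1 h at room temperature with 1 mM MnCl2 in BSA/TBST buffer, integrin diluted to 0.2 μg/mL before addition. Streptavidin-HRP/TMB read-out; four-parameter logistic fitting gave IC50.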

Chain of αvβ1 (P06756 31-992 limits assumed): as the sequence (P06756 31-992 limits assumed) above
Chain of αvβ1 (P05556 21-728 limits assumed): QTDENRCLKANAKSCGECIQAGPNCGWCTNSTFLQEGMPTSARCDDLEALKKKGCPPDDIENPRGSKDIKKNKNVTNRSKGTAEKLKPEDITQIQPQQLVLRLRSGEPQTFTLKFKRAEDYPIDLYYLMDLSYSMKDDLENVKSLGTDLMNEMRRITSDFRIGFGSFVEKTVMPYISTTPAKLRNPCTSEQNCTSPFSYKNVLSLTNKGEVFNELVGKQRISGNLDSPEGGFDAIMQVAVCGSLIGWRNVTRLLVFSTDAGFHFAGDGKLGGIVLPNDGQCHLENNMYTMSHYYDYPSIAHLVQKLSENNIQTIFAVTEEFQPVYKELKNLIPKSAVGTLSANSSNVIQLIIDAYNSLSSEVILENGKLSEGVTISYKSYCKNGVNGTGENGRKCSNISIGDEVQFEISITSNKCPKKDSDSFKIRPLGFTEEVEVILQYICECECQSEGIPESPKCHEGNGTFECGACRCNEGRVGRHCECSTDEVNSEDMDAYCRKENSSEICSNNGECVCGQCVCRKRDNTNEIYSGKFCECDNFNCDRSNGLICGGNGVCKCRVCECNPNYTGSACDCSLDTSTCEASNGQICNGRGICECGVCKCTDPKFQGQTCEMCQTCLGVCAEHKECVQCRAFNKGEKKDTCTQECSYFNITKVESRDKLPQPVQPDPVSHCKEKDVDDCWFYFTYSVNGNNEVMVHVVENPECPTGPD

O=C(NC[C@H](NC(=O)[C@@H]1CC2CCC1CC2)C(=O)O)[C@@H]1CCCN(CCCc2ccc3c(n2)NCCC3)C1 [Compound 304]
IC50 (αvβ1): < 0.1 µM | IC50 (αvβ6): < 0.1 µM

O=C(NC[C@H](NC(=O)[C@H]1CC2CCC1CC2)C(=O)O)[C@@H]1CCCN(CCCc2ccc3c(n2)NCCC3)C1 [Compound 305]
IC50 (αvβ1): < 0.1 µM | IC50 (αvβ6): < 0.1 µM

O=C(NC[C@H](C(=O)O)c1cc(F)cc(-c2ccccc2)c1)[C@@H]1CCCN(CCCc2ccc3c(n2)NCCC3)C1 [Compound 306]
IC50 (αvβ1): 0.1 to 1 µM | IC50 (αvβ6): 0.1 to 1 µM

O=C(NC[C@@H](C(=O)O)c1cc(F)cc(-c2ccccc2)c1)[C@@H]1CCCN(CCCc2ccc3c(n2)NCCC3)C1 [Compound 307]
IC50 (αvβ1): < 0.1 µM | IC50 (αvβ6): < 0.1 µM

O=C(NC[C@@H](C(=O)O)c1ccc(F)c(-c2ccccc2)c1)[C@@H]1CCCN(CCCc2ccc3c(n2)NCCC3)C1 [Compound 308]
IC50 (αvβ1): 0.1 to 1 µM | IC50 (αvβ6): 0.1 to 1 µM

O=C(NC[C@H](C(=O)O)c1ccc(F)c(-c2ccccc2)c1)[C@@H]1CCCN(CCCc2ccc3c(n2)NCCC3)C1 [Compound 309]
IC50 (αvβ1): < 0.1 µM | IC50 (αvβ6): < 0.1 µM

O=C(N[C@@H](CNC(=O)[C@@H]1CCCN(CCCc2ccc3c(n2)NCCC3)C1)C(=O)O)C1CCOCC1 [Compound 311]
IC50 (αvβ1): < 0.1 µM | IC50 (αvβ6): < 0.1 µM

O=C(N[C@@H](CNC(=O)[C@@H]1CCCN(CCCc2ccc3c(n2)NCCC3)C1)C(=O)O)c1ccncc1 [Compound 312]
IC50 (αvβ1): < 0.1 µM | IC50 (αvβ6): < 0.1 µM

O=C(N[C@@H](CNC(=O)[C@@H]1CCCN(CCCc2ccc3c(n2)NCCC3)C1)C(=O)O)c1nnc(C2CC2)o1 [Compound 313]
IC50 (αvβ1): < 0.1 µM | IC50 (αvβ6): < 0.1 µM

O=C(NC[C@@H](C(=O)O)c1cccc2c1cnn2CC1CC1)[C@@H]1CCCN(CCCc2ccc3c(n2)NCCC3)C1 [Compound 314]
IC50 (αvβ1): 0.1 to 1 µM | IC50 (αvβ6): 0.1 to 1 µM

O=C(NC[C@H](C(=O)O)c1cccc2c1cnn2CC1CC1)[C@@H]1CCCN(CCCc2ccc3c(n2)NCCC3)C1 [Compound 315]
IC50 (αvβ1): < 0.1 µM | IC50 (αvβ6): < 0.1 µM

O=C(NC[C@@H](C(=O)O)c1cccc2nn(CC3CC3)cc12)[C@@H]1CCCN(CCCc2ccc3c(n2)NCCC3)C1 [Compound 316]
IC50 (αvβ1): 0.1 to 1 µM | IC50 (αvβ6): > 1 µM

O=C(NC[C@H](C(=O)O)c1cccc2nn(CC3CC3)cc12)[C@@H]1CCCN(CCCc2ccc3c(n2)NCCC3)C1 [Compound 317]
IC50 (αvβ1): < 0.1 µM | IC50 (αvβ6): < 0.1 µM

O=C(NC[C@H](C(=O)O)c1cccc2n[nH]cc12)[C@@H]1CCCN(CCCc2ccc3c(n2)NCCC3)C1 [Compound 318]
IC50 (αvβ1): 0.1 to 1 µM | IC50 (αvβ6): > 1 µM

O=C(NC[C@@H](C(=O)O)c1cccc2n[nH]cc12)[C@@H]1CCCN(CCCc2ccc3c(n2)NCCC3)C1 [Compound 319]
IC50 (αvβ1): < 0.1 µM | IC50 (αvβ6): < 0.1 µM

O=C(NC[C@@H](C(=O)O)c1cccc2cnn([C@H]3CCOC3)c12)[C@@H]1CCCN(CCCc2ccc3c(n2)NCCC3)C1 [Compound 320]
IC50 (αvβ1): > 1 µM | IC50 (αvβ6): > 1 µM

O=C(NC[C@H](C(=O)O)c1cccc2cnn([C@H]3CCOC3)c12)[C@@H]1CCCN(CCCc2ccc3c(n2)NCCC3)C1 [Compound 321]
IC50 (αvβ1): < 0.1 µM | IC50 (αvβ6): 0.1 to 1 µM

O=C(NC[C@@H](C(=O)O)c1cccc2cnn([C@@H]3CCOC3)c12)[C@@H]1CCCN(CCCc2ccc3c(n2)NCCC3)C1 [Compound 322]
IC50 (αvβ1): 0.1 to 1 µM | IC50 (αvβ6): > 1 µM

O=C(NC[C@H](C(=O)O)c1cccc2cnn([C@@H]3CCOC3)c12)[C@@H]1CCCN(CCCc2ccc3c(n2)NCCC3)C1 [Compound 323]
IC50 (αvβ1): < 0.1 µM | IC50 (αvβ6): < 0.1 µM

O=C(NC[C@@H](C(=O)O)c1cnc2[nH]ccc2c1)[C@@H]1CCCN(CCCc2ccc3c(n2)NCCC3)C1 [Compound 324]
IC50 (αvβ1): < 0.1 µM | IC50 (αvβ6): > 1 µM

O=C(NC[C@H](C(=O)O)c1cnc2[nH]ccc2c1)[C@@H]1CCCN(CCCc2ccc3c(n2)NCCC3)C1 [Compound 325]
IC50 (αvβ1): < 0.1 µM | IC50 (αvβ6): < 0.1 µM

O=C(NC[C@@H](C(=O)O)c1cnc2c(ccn2CC2CC2)c1)[C@@H]1CCCN(CCCc2ccc3c(n2)NCCC3)C1 [Compound 326]
IC50 (αvβ1): < 0.1 µM | IC50 (αvβ6): < 0.1 µM
